Numbers after ± are expanded uncertainties.
Experiment: xn = mol fraction of the nth substance listed
Settings: Gas, Vibrating wire viscometry

C [methane] + CCC
x2 = 0.0548
Settings	viscosity [mPa·s]
280.16 K, 610 kPa	0.01039 ± 0.00017
280.16 K, 1550 kPa	0.01051 ± 0.00013
280.17 K, 3150 kPa	0.01083 ± 0.00016
280.17 K, 4970 kPa	0.01143 ± 0.00019
280.18 K, 5880 kPa	0.01179 ± 0.00016
280.2 K, 6560 kPa	0.01211 ± 0.00016
280.21 K, 6970 kPa	0.0123 ± 0.00015
298.18 K, 870 kPa	0.01083 ± 0.00018
298.18 K, 1450 kPa	0.01096 ± 0.00019
298.19 K, 4110 kPa	0.01163 ± 0.00015
298.2 K, 2650 kPa	0.01124 ± 0.00024
298.2 K, 5430 kPa	0.01211 ± 0.00016
298.22 K, 6340 kPa	0.01244 ± 0.00016
298.22 K, 6700 kPa	0.01259 ± 0.00016

C [methane] + O=C=O
x1 = 0.57
Settings	viscosity [mPa·s]
280.17 K, 6410 kPa	0.01457 ± 5e-05
280.2 K, 5490 kPa	0.01408 ± 5.6e-05
280.22 K, 4480 kPa	0.01364 ± 0.00011
280.24 K, 3500 kPa	0.01338 ± 0.00018
280.31 K, 2510 kPa	0.0131 ± 0.00032
280.32 K, 1510 kPa	0.01303 ± 0.00023
303.18 K, 5440 kPa	0.01477 ± 8.4e-05
303.18 K, 6330 kPa	0.01523 ± 0.0001
303.19 K, 3500 kPa	0.01411 ± 6.8e-05
303.19 K, 4500 kPa	0.0144 ± 9.2e-05
303.2 K, 1500 kPa	0.01381 ± 0.00012
303.2 K, 2500 kPa	0.01387 ± 0.00014
328.13 K, 6450 kPa	0.01573 ± 0.0001
328.14 K, 3490 kPa	0.01477 ± 6.8e-05
328.14 K, 4490 kPa	0.01504 ± 9.4e-05
328.14 K, 5500 kPa	0.01538 ± 8.4e-05
328.15 K, 2500 kPa	0.01453 ± 0.00014
328.16 K, 1510 kPa	0.01447 ± 0.00012

— the NIST ThermoML archive (doi:10.1021/je500083n)
